Where two headings read alike, the source gives them in different places.
How the values were obtained:
[1] = tested on: dorsal root ganglion explants; assay: Axonal Wallerian degeneration assay in mouse DRG explant culture; type: cell-based, C57BL/6 male mice; details: 10 µM test compound, 2 hours pretreatment, axons transected, images at 0 hour and 24 hours
Excerpt: The experimental method was based on Gerdts J et al. (Gerdts J, Sasaki Y, Vohra B, Marasa J, Milbrandt J. Image-based screening identifies novel roles for IkappaB kinase and glycogen synthase kinase 3 in axonal degeneration. J Biol Chem. 2011 Aug 12;286(32):28011-8).
Dorsal root ganglia were dissected from 2-month-old C57BL/6 male mice and placed in 35 mm culture dishes containing pre-cooled HBSS buffer. Excess tissue from each dorsal root ganglion was removed and cut into 2-3 explants using a scalpel, and the explants were planted in wells of a 96-well plate coated with 100 ng/mL Matrigel (Corning). 100 µL of DRG culture medium (Neurobasal medium (Gibco) containing 2% B-27 (Gibco), 1% GlutaMax (Gibco), and 10 ng/mL NGF (MCE)) was added, then cultured in a 37°C incubator for one week, with medium change on day 4, and experiments were performed on day 8.
0.1 µL of 10 mM test compound was dissolved in 100 µL DRG culture medium to prepare new culture medium containing 10 µM test compound. The culture medium in the 96-well plate was aspirated and new culture medium containing the test compound was added. Then the dorsal root ganglion explants were incubated with the medium in a 37°C incubator for 2 hours for pre-protection. After 2-hour pretreatment, a glass electrode was used to transect axons in the area near the tissue block, and bright-field images of axons in the same area were captured at 0 hour and 24 hours post axonal degeneration using a 20x objective lens of a microscope (Olympus). Axonal integrity was evaluated using an in-house developed script.

SARM1 = biological target: T1, SARM1 (Homo sapiens, UniProt Q6SZW1); assay: In vitro biochemical assay for inhibiting SARM1 enzyme activity (PC6 fluorescence, NADase); details: full-length SARM1 from transfected HEK293 cells, 50 µM NAD, 50 µM PC6, 50 µM NMN activator, room temperature, 30 minutes
T1 construct: inventors produced full-length SARM1 for NAD enzyme activity experiments, and used it for screening; His (C); made in house; host or cells: HEK293 cells, transient transfection; supernatant of digitonin lysate, no further purification described
T1 sequence (Q6SZW1 28-724): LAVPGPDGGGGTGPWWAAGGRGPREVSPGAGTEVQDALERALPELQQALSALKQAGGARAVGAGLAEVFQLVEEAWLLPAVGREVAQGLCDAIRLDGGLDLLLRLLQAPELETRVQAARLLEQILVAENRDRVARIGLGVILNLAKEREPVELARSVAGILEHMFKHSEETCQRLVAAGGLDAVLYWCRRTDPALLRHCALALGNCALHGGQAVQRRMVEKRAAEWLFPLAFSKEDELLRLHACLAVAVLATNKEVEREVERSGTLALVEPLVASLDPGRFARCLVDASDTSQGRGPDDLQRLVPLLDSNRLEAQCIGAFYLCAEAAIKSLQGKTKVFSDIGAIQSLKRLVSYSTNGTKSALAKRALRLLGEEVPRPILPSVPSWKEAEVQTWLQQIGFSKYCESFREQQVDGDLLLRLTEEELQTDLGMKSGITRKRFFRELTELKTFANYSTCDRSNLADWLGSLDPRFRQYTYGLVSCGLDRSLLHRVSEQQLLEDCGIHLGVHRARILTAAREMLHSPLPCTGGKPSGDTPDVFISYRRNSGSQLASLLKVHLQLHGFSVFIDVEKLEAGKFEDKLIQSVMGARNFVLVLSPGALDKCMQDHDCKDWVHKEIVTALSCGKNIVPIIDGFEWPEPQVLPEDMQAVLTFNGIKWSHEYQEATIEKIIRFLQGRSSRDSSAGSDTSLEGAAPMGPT
Protocol: The gene sequence of SARM1 protein was amplified using PCR, and the PCR amplification product was constructed into pcDNA3.1-HIS-C plasmid. The above construction was completed by YouBio(Hunan, China). HEK293 cells were cultured in 10 cm dishes using DMEM, and the cells were transfected with 15 μg pcDNA3.1-SARM[…]-C expression plasmid on the following day. Cells were collected 48 hours after transfection, and SARM1 protein expressed in the cells was obtained by digitonin lysis for in vitro activity assay experiments. The specific procedure was as follows: Cells were digested with trypsin-EDTA, then centrifuged at 1000 rpm for 5 minutes, washed once with PBS, and then resuspended in PBS containing 100 μM digitonin, with 0.6 mL PBS for the cells in per 10 cm dish, and lysed for 5 minutes. […] Then the supernatant containing SARM1 protein was collected by centrifugation at 5000 rpm for 10 minutes. […] A group without inhibitor was used as control group. All mixtures were incubated at room temperature for 10 minutes. Then, 50 μM NAD and 50 μM PC6 as substrates and 50 μM NMN as an activator were added to the SARM1 protein incubated with the inhibitor, and the reaction was carried out at room temperature for 30 minutes. The concentrations of each component were the final concentrations in the reaction system. […] Finally, the reaction rate was used to represent the protein activity and calculate the half-maximal inhibitory concentration.

O=C(CNc1ccc(F)cc1)Nc1ccc2c(c1)COc1cnccc1-2 [Compound 75]
Degree of Protection Against Axonal Wallerian Degeneration [1]: B (partial protection (B): 20% to 50%) | IC50 (SARM1; read-out: IC50): < 100 nM

O=C(CC1CCc2ccccc21)Nc1ccc2c(c1)COc1cnccc1-2 (stereo not shown) [Compound 76]
Degree of Protection Against Axonal Wallerian Degeneration [1]: A (substantial protection (A) >50%) | IC50 (SARM1; read-out: IC50): 100 to 1000 nM

Fc1ccc(CNC(=S)Nc2ccc3c(c2)COc2cnccc2-3)cc1 [Compound 77, 1-(4-fluorobenzyl)-3-(6H-isochromeno[3,4-c]pyridin-8-yl)thiourea]
Degree of Protection Against Axonal Wallerian Degeneration [1]: B (partial protection (B): 20% to 50%) | IC50 (SARM1): < 100 nM

COc1ccc(CCC(=O)Nc2ccc3c(c2)COc2cnccc2-3)cc1 [Compound 78]
Degree of Protection Against Axonal Wallerian Degeneration [1]: A (substantial protection (A) >50%) | IC50 (SARM1; read-out: IC50): 100 to 1000 nM

O=C(CCc1c(F)c(F)c(F)c(F)c1F)Nc1ccc2c(c1)COc1cnccc1-2 [Compound 80]
Degree of Protection Against Axonal Wallerian Degeneration [1]: A (substantial protection (A) >50%) | IC50 (SARM1; read-out: IC50): < 100 nM

O=C(CCc1ccc(Cl)cc1)Nc1cnc2c(c1)COc1cnccc1-2 [Compound 84]
Degree of Protection Against Axonal Wallerian Degeneration [1]: B (partial protection (B): 20% to 50%) | IC50 (SARM1; read-out: IC50): < 100 nM

O=C(CCc1ccc(F)c(F)c1)Nc1cnc2c(c1)COc1cnccc1-2 [Compound 87]
Degree of Protection Against Axonal Wallerian Degeneration [1]: A (substantial protection (A) >50%) | IC50 (SARM1; read-out: IC50): < 100 nM

O=C(CCc1ccc(F)cc1)Nc1cnc2c(c1)COc1cnccc1-2 [Compound 91, 3-(4-fluorophenyl)-N-(5H-pyrano[4,5-b:2,3-c']dipyridin-3-yl)propanamide]
Degree of Protection Against Axonal Wallerian Degeneration [1]: A (substantial protection (A) >50%) | IC50 (SARM1; read-out: IC50): < 100 nM

O=C(CCc1cccc(F)c1)Nc1cnc2c(c1)COc1cnccc1-2 [Compound 94]
Degree of Protection Against Axonal Wallerian Degeneration [1]: A (substantial protection (A) >50%) | IC50 (SARM1; read-out: IC50): < 100 nM

O=C(CCc1ccccc1)Nc1cnc2c(c1)COc1cnccc1-2 [Compound 95]
Degree of Protection Against Axonal Wallerian Degeneration [1]: B (partial protection (B): 20% to 50%) | IC50 (SARM1; read-out: IC50): < 100 nM

O=C(CCc1cc(F)cc(F)c1)Nc1cnc2c(c1)COc1cnccc1-2 [Compound 96]
Degree of Protection Against Axonal Wallerian Degeneration [1]: A (substantial protection (A) >50%) | IC50 (SARM1; read-out: IC50): < 100 nM

O=C(NCc1ccc(F)cc1)Nc1cnc2c(c1)COc1cnccc1-2 [Compound 101, 1-(4-fluorobenzyl)-3-(5H-pyrano[4,5-b:2,3-c']dipyridin-3-yl)urea]
Degree of Protection Against Axonal Wallerian Degeneration [1]: A (substantial protection (A) >50%) | IC50 (SARM1; read-out: IC50): < 100 nM

O=C(CCc1ccc(F)cc1)Nc1cc2c(cn1)-c1ccncc1OC2 [Compound 112, 3-(4-fluorophenyl)-N-(5H-pyrano[2,3-c:4,5-c']dipyridin-3-yl)propanamide]
Degree of Protection Against Axonal Wallerian Degeneration [1]: A (substantial protection (A) >50%) | IC50 (SARM1; read-out: IC50): < 100 nM

O=C1C(Cc2ccc(F)cc2)CCN1c1cnc2c(c1)COc1cnccc1-2 (stereo not shown) [Compound 126]
Degree of Protection Against Axonal Wallerian Degeneration [1]: A (substantial protection (A) >50%) | IC50 (SARM1; read-out: IC50): < 100 nM

O=C1C(Cc2ccc(F)cc2)CCN1c1cc2c(cn1)-c1ccncc1OC2 (stereo not shown) [Compound 128]
Degree of Protection Against Axonal Wallerian Degeneration [1]: A (substantial protection (A) >50%) | IC50 (SARM1; read-out: IC50): < 100 nM

Cc1cncc2c1-c1ccc(NC(=O)CCc3ccc(F)cc3)cc1CO2 [Compound 130, 3-(4-fluorophenyl)-N-(1-methyl-6H-isochromeno[3,4-c]pyridin-8-yl)propanamide]
Degree of Protection Against Axonal Wallerian Degeneration [1]: B (partial protection (B): 20% to 50%) | IC50 (SARM1; read-out: IC50): < 100 nM

CN1Cc2cnccc2-c2ccc(N3CCC(Cc4ccc(F)cc4)C3=O)cc2C1 (stereo not shown) [Compound 133]
Degree of Protection Against Axonal Wallerian Degeneration [1]: B (partial protection (B): 20% to 50%) | IC50 (SARM1; read-out: IC50): 100 to 1000 nM

CN1Cc2cnccc2-c2ccc(NC(=O)CCc3ccc(F)cc3)cc2C1 [Compound 134]
Degree of Protection Against Axonal Wallerian Degeneration [1]: B (partial protection (B): 20% to 50%) | IC50 (SARM1; read-out: IC50): 100 to 1000 nM

O=C(Nc1ccc2c(c1)COc1cnccc1-2)OCc1ccc(F)cc1 [Compound 135]
Degree of Protection Against Axonal Wallerian Degeneration [1]: A (substantial protection (A) >50%) | IC50 (SARM1; read-out: IC50): 100 to 1000 nM

O=C(CCc1ccccc1F)Nc1ccc2c(c1)COc1cnccc1-2 [Compound 136]
Degree of Protection Against Axonal Wallerian Degeneration [1]: A (substantial protection (A) >50%) | IC50 (SARM1; read-out: IC50): < 100 nM

O=C1C(Cc2ccc(F)cc2)CCCN1c1ccc2c(c1)COc1cnccc1-2 (stereo not shown) [Compound 137]
Degree of Protection Against Axonal Wallerian Degeneration [1]: A (substantial protection (A) >50%) | IC50 (SARM1; read-out: IC50): 100 to 1000 nM

O=C(CCc1cccs1)Nc1ccc2c(c1)COc1cnccc1-2 [Compound 138]
Degree of Protection Against Axonal Wallerian Degeneration [1]: A (substantial protection (A) >50%) | IC50 (SARM1; read-out: IC50): < 100 nM

[2H]C1(Cc2ccc(F)cc2)CCN(c2ccc3c(c2)COc2cnccc2-3)C1=O (stereo not shown) [Compound 139, 3-(4-fluorobenzyl)-1-(6H-isochromeno[3,4-c]pyridin-8-yl)pyrrolidin-2-one-3d]
Degree of Protection Against Axonal Wallerian Degeneration [1]: A (substantial protection (A) >50%) | IC50 (SARM1; read-out: IC50): < 100 nM

O=C(CCc1ccc(F)cc1)Nc1ccc2c(c1)COc1cncc(Cl)c1-2 [Compound 140]
Degree of Protection Against Axonal Wallerian Degeneration [1]: B (partial protection (B): 20% to 50%) | IC50 (SARM1; read-out: IC50): 100 to 1000 nM

O=C1C(Cc2ccc(F)cc2)CN1c1ccc2c(c1)COc1cnccc1-2 (stereo not shown) [Compound 142, 3-(4-fluorobenzyl)-1-(6H-isochromeno[3,4-c]pyridin-8-yl)azetidin-2-one]
Degree of Protection Against Axonal Wallerian Degeneration [1]: A (substantial protection (A) >50%) | IC50 (SARM1; read-out: IC50): 100 to 1000 nM

[2H]C1(Cc2ccc(F)cc2)CCN(c2ccc3c(c2)C([2H])([2H])Oc2cnccc2-3)C1=O (stereo not shown) [Compound 143, 3-(4-fluorobenzyl)-1-(6H-isochromeno[3,4-c]pyridin-8-yl-6,6-d2)pyrrolidin-2-one-3d]
Degree of Protection Against Axonal Wallerian Degeneration [1]: A (substantial protection (A) >50%) | IC50 (SARM1; read-out: IC50): < 100 nM

[2H]C1Oc2cnccc2-c2ccc(N3CCC(Cc4ccc(F)cc4)C3=O)cc21 (stereo not shown) [Compound 145, 3-(4-fluorobenzyl)-1-(6H-isochromeno[3,4-c]pyridin-8-yl-6-d)pyrrolidin-2-one]
Degree of Protection Against Axonal Wallerian Degeneration [1]: A (substantial protection (A) >50%) | IC50 (SARM1; read-out: IC50): < 100 nM

[2H]C1([2H])Oc2cnccc2-c2ccc(N3CCC(Cc4ccc(F)cc4)C3=O)cc21 (stereo not shown) [Compound 146, 3-(4-fluorobenzyl)-1-(6H-isochromeno[3,4-c]pyridin-8-yl-6,6-d2)pyrrolidin-2-one]
Degree of Protection Against Axonal Wallerian Degeneration [1]: A (substantial protection (A) >50%) | IC50 (SARM1; read-out: IC50): < 100 nM

CC1Oc2cnccc2-c2ccc(N3CCC(Cc4ccc(F)cc4)C3=O)cc21 (stereo not shown) [Compound 147, 3-(4-fluorobenzyl)-1-(6-methyl-6H-isochromeno[3,4-c]pyridin-8-yl)pyrrolidin-2-one]
Degree of Protection Against Axonal Wallerian Degeneration [1]: A (substantial protection (A) >50%) | IC50 (SARM1; read-out: IC50): < 100 nM

From patent publication EP4782449A1, “TRICYCLIC PYRIDINE COMPOUND ACTING AS SARM1 ENZYME ACTIVITY INHIBITOR, AND USE THEREOF” (Artivila (ShenZhen) Innovation Center, Ltd., priority 2023, dated 2025)
